The target of data set [1] is Prostaglandin G/H synthase 1 (Homo sapiens, UniProt P23219). The data set can be described thus: Inhibition of human COX-1.
For data set [2], the species on record is Homo sapiens. The data set can be described thus: Selectivity ratio of IC50 for human COX1 to IC50 for human COX2.
Data set [3] concerns Rattus norvegicus. The data set can be described thus: Antiinflammatory activity in rat assessed as reduction of carrageenan-induced paw edema. In kind it is functional.
The nature of data set [4]: Half life in human at 10 ug, po. In kind it is ADME, organism-based. The following applies: in vivo.
Data set [5] in a line: Half life in cynomolgus monkey. The following applies: in vivo. In kind it is ADME, organism-based, Macaca fascicularis.
Data set [6] in a line: Half life in dog. The data set is classed as ADME, organism-based, Canis lupus familiaris. As to conditions: in vivo.
The nature of data set [7]: Half life in rat. In kind it is ADME, organism-based. As to conditions: in vivo.
For data set [8], the species on record is Rattus norvegicus. Nature of the data set: Analgesic activity against carrageenan-induced thermal hyperalgesia in rat. In kind it is functional.
The subject of data set [9] is Rattus norvegicus. Nature of the data set: Antiinflammatory activity in rat air pouch model assessed as inhibition of carrageenan-induced PGE2 production administered 1 hr before carrageenan challenge. In kind it is functional. The following applies: for ED50: Rattus norvegicus.
For data set [10], the species on record is Rattus norvegicus. Nature of the data set: Antiarthritic activity in rat assessed as reduction in adjuvant-induced arthritic pain. In kind it is functional.
Data set [11] has as its system Rattus norvegicus. Nature of the data set: Antiinflammatory activity in rat air pouch model assessed as inhibition of carrageenan-induced PGE2 production administered 1 hr after carrageenan challenge.

A value given as a limit tells only on which side of the number the result lay.

Prostaglandin G/H synthase 1, sequence (P23219 whole entry): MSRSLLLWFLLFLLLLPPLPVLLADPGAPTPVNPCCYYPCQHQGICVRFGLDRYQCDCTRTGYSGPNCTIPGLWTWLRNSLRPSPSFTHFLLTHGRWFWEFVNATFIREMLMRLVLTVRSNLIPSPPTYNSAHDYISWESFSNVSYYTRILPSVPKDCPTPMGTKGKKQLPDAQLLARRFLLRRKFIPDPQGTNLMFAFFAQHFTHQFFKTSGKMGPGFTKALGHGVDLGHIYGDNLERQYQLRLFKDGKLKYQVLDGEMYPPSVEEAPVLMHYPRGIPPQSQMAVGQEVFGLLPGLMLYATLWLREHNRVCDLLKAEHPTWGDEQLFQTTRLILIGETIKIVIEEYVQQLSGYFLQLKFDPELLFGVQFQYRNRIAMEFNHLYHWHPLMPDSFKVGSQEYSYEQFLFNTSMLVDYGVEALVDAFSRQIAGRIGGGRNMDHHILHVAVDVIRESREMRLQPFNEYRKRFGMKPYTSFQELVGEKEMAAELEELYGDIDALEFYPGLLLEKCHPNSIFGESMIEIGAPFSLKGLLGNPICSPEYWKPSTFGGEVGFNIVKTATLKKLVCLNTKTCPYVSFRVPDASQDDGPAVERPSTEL

As a reminder, the IC50 is the concentration at which inhibition is half-maximal. Consider `CCc1cc(OC(F)(F)F)cc2c1O[C@@H](C(F)(F)F)C(C(=O)O)=C2`, for which, in [1], the IC50 was 100 µM.

Regarding `O=Cc1ccc2c(c1)C=C(C(=O)O)C(C(F)(F)F)O2` (stereo not given), the Ratio IC50 in [2] is 685. Besides, the IC50 in data set [1] was found to be 500 µM.

On to `COc1cc(Cl)c2c(c1)C=C(C(=O)O)C(C(F)(F)F)O2` (stereo not given), for which the Ratio IC50 in data set [2] turned out to be 107. For the same compound, the IC50 in data set [1] was 25.6 µM.

In [1], `Cc1cc(Cl)cc2c1OC(C(F)(F)F)C(C(=O)O)=C2` (stereo not given) came in with an IC50 of 0.47 µM.

`N#Cc1ccc2c(c1)C=C(C(=O)O)C(C(F)(F)F)O2` (stereo not given): the Ratio IC50 in data set [2] stood at 1040. For the same compound, in [1], it took 115 µM to reach half-maximal inhibition (IC50).

On to `COc1cc(OC(F)(F)F)cc2c1OC(C(F)(F)F)C(C(=O)O)=C2` (stereo not given), for which the Ratio IC50 in data set [2] was found to be 0.5. In [1], half-maximal inhibition (IC50) required 0.32 µM.

One may read the ED50 as the midpoint of the dose-response relation. Usually half-life stands for the time needed for the level to fall by half in the phase considered. For `Cc1cc2c(c(C)c1Cl)C=C(C(=O)O)[C@@H](C(F)(F)F)O2`, the ED50 stood at 8 mg/kg in [3], 7.6 mg/kg in data set [8], 0.41 mg/kg in data set [9] and 3.2 mg/kg in data set [10]. The IC50 in data set [1] turned out to be 2.28 µM. In addition, the half-life in data set [4] is 11 h; in data set [5], 5.4 h; in [6], 23 h; in data set [7], 4.7 h.

As to `CCCc1cc(OC(F)(F)F)cc2c1OC(C(F)(F)F)C(C(=O)O)=C2` (stereo not given), the Ratio IC50 in data set [2] is 163. This compound also had an IC50 in [1] of 7 µM.

In the case of `Cc1cc(C)c2c(c1)C=C(C(=O)O)[C@@H](C(F)(F)F)O2`, the ED50 in [3] stood at 8.6 mg/kg; in data set [8] it was 20.7 mg/kg; in data set [9] it was 2 mg/kg; in data set [10], 10 mg/kg. Moreover, in data set [1], the IC50 was 100 µM. The half-life in [4] is 57 h; in [5], 28 h; in data set [6], 19 h; in [7] it was 8.7 h. The “inhibition (INH)” value in [9] is 80%.

Turning to `CCc1cc(OC(F)(F)F)cc2c1O[C@H](C(F)(F)F)C(C(=O)O)=C2`, the ED50 was 3.8 mg/kg in data set [3], 5.6 mg/kg in data set [8], 1.87 mg/kg in [9] and 0.8 mg/kg in [10]. The same compound returned an IC50 in data set [1] of 19.9 µM. The half-life in [4] was 13 h; in data set [5], 12 h; in data set [6], 7.7 h; in data set [7] it was 2 h. In data set [9], the “inhibition (INH)” value is reported as >72%.

On to `Cc1cc2c(c(C)c1Cl)C=C(C(=O)O)[C@H](C(F)(F)F)O2`, for which, in data set [1], the IC50 was 30.8 µM.

As to `Cc1cc2c(c(C)c1Cl)C=C(C(=O)O)C(C(F)(F)F)O2` (stereo not given), the Ratio IC50 in data set [2] came to 229. In data set [1], this compound showed an IC50 of 29.8 µM.

Regarding `C#Cc1ccc2c(c1)C=C(C(=O)O)C(C(F)(F)F)O2` (stereo not given), the Ratio IC50 in data set [2] turned out to be 1290. The IC50 in data set [1] amounted to 94.2 µM. The “inhibition (INH)” value in data set [9] turned out to be 60%.

On to `CCc1ccc2c(c1)C=C(C(=O)O)C(C(F)(F)F)O2` (stereo not given), for which the Ratio IC50 in data set [2] was found to be 0.36. Moreover, the “inhibition (INH)” value in data set [11] is 90%. Half-maximal inhibition in [1] (IC50) required 0.12 µM.

For `COc1cc(C)cc2c1OC(C(F)(F)F)C(C(=O)O)=C2` (stereo not given), the Ratio IC50 in data set [2] stood at 2.9.

For `Cc1cc(Cl)c(C)c2c1OC(C(F)(F)F)C(C(=O)O)=C2` (stereo not given), in [2], the Ratio IC50 came to 12. The same compound came in with an IC50 in [1] of 2.58 µM.

With `CCc1cc(OC(F)(F)F)cc2c1OC(C(F)(F)F)C(C(=O)O)=C2` (stereo not given), half-maximal inhibition in data set [1] (IC50) required 0.5 µM.

`CCc1cc(C)c2c(c1)C=C(C(=O)O)C(C(F)(F)F)O2` (stereo not given): the Ratio IC50 in [2] was determined as 0.5. Moreover, the IC50 in data set [1] is 0.14 µM.

With `Cc1c(Cl)cc2c(c1C)O[C@H](C(F)(F)F)C(C(=O)O)=C2`, in data set [11], the “inhibition (INH)” value stood at 60%.

`Cc1ccc2c(c1)C=C(C(=O)O)C(C(F)(F)F)O2` (stereo not given): the Ratio IC50 in data set [2] was 896. The IC50 in [1] is 224 µM. In addition, the “inhibition (INH)” value in data set [9] is 13%.

Take `Cc1cc(C)c2c(c1)C=C(C(=O)O)C(C(F)(F)F)O2` (stereo not given): in [2], the Ratio IC50 stood at 704. Also, in [1], the IC50 came to 169 µM.

For the compound `Cc1cc(OC(F)(F)F)cc2c1O[C@H](C(F)(F)F)C(C(=O)O)=C2`, the “inhibition (INH)” value in data set [9] is >68%.

Consider `Cc1cc(Cl)c2c(c1)C=C(C(=O)O)C(C(F)(F)F)O2` (stereo not given), for which the Ratio IC50 in [2] is 5.7. The compound also gave an IC50 in data set [1] of 1.08 µM.

In data set [1], `CCCc1cc(OC(F)(F)F)cc2c1O[C@@H](C(F)(F)F)C(C(=O)O)=C2` came in with an IC50 of 100 µM.

With `CCCc1cc(OC(F)(F)F)cc2c1O[C@H](C(F)(F)F)C(C(=O)O)=C2`, the IC50 in data set [1] worked out at 71.7 µM. The “inhibition (INH)” value in data set [9] is recorded as >68%.

As to `O=C(O)C1=Cc2cc(OC(F)(F)F)ccc2OC1C(F)(F)F` (stereo not given) [OCAROCOXIB], in data set [2], the Ratio IC50 stood at 773. Also, in data set [1], the IC50 is 17 µM.

In data set [1], `O=C(O)C1=Cc2cc(C(F)(F)F)ccc2OC1C(F)(F)F` (stereo not given) registered an IC50 of 4.39 µM.

Consider `C#Cc1cc(Cl)c2c(c1)C=C(C(=O)O)C(C(F)(F)F)O2` (stereo not given), for which, in data set [2], the Ratio IC50 amounted to 5.4. This compound also had a 50% inhibitory concentration (IC50) in data set [1] of 0.14 µM.

Turning to `O=C(O)C1=Cc2cc(Cl)ccc2OC1C(F)(F)F` (stereo not given), the Ratio IC50 in data set [2] amounted to 91.

Take `COc1ccc2c(c1)C=C(C(=O)O)C(C(F)(F)F)O2` (stereo not given): in data set [2], the Ratio IC50 is 1.

Source of the values: ChEMBL document CHEMBL1287644, “The novel benzopyran class of selective cyclooxygenase-2 inhibitors. Part III: the three microdose candidates” (Bioorg Med Chem Lett, 2010).
